# “Also recorded” adds a separate entry of the source.
# Tests used:
# NOD1 [1] = test: Western blot of MAPK phosphorylation and IκBα in Tri-DAP-stimulated 293/hNOD1 cells; type: cell-based, human; conditions: GSK669 up to 30 μM
# Procedure: Confluent cultures of 293/-hNOD1 and -hNOD2 cells in 24-well plates were serum-starved over-night. The next day, cells were pre-incubated for 1 hour with compound and then stimulated for 1 hour with either 50 μg/mL Tri-DAP or 25 μg/mL MDP, respectively. Whole cell lysates were prepared in 1X cell lysis buffer (Cell Signaling Technology) containing additional inhibitors of aspartic, cysteine and serine proteases and aminopeptidases (protease inhibitor cocktail set III, EMD Biosciences) and inhibitors of multiple phosphatases (phosphatase inhibitor cocktail sets II and III, Sigma-Aldrich). The levels of phosphorylated and total p38, JNK, ERK1/2 and total IκBα were determined by immunoblotting of ∼20 μg protein per sample using the following primary antibodies: phospho-p38 MAPK (12F8, #4631), p38 MAPK (#9212), phospho-JNK (#9251), JNK (#9252) and IκBα (#9242) all purchased from Cell Signaling Technology, and phospho-ERK1/2 (sc-7383) and ERK1/2 (sc-94) antibodies from Santa Cruz Biotechnology.
# [2] = target: T1, full length human FLAG-6His tagged RIP2 (Homo sapiens, UniProt O43353); test: RIP2 kinase autophosphorylation assay (ADP-Glo); type: biochemical; conditions: autophosphorylation of RIPK2; 10 μM ATP
# T1 construct: autophosphorylation of full length human FLAG-6His tagged RIP2; FLAG; 6His; made in house
# Procedure: Direct effects of compounds on RIP2 kinase activity was determined by autophosphorylation of full length human FLAG-6His tagged RIP2 expressed and purified from baculovirus. Enzyme was pre-incubated with compounds in assay buffer (50 mM HEPES pH 7.5, 25 mM MgCl2, 0.05%[w/v] CHAPS, 1 mM DTT and 0.05 mg/mL BSA) in 384-well plates, and then incubated with 10μM ATP for 2 hours at room temperature. The amount of ADP generated was measured using the ADP-Glo universal ADP detection assay for kinases (Promega) and luminescence quantified on a ViewLux imager.
# HCT116 cells = test: Uptake of MDP-rhodamine by HCT116 cells (fluorescence microscopy); type: cell-based, human; conditions: GSK669 up to 20 μM, chlorpromazine 20 μM, 1–4 hour
# Procedure: HCT116 cells seeded onto glass cover-slips at low density were pre-treated with GSK669 or the endocytosis inhibitor chlorpromazine for 30 minutes before addition of 2.5 μg/mL MDP-rhodamine. Live cells were viewed periodically over 6-hours incubation at 37 °C using a Nikon eclipse TE2000-E fluorescent inverted microscope fitted with a CCTV camera and rhodamine filter.
# NOD1 [3] = test: IL-8 secretion induced by NOD1 over-expression (BacMam) in HEK293T cells with or without iE-DAP; type: cell-based, human
# Procedure: Over-expression of NOD1 and NOD2 was achieved by transduction of HEK293T cells with either NOD1 or NOD2 BacMam recombinant baculoviruses. […] The effect of compounds on activator-independent NOD1/2 signaling was determined by 30 minute pre-treatment of cells (in 96-well plates seeded the previous day in DMEM high glucose with 10% FBS at 60,000 cells/well) followed by infection with NOD1 or NOD2 BacMam virus (MOI = 50). IL-8 was measured in conditioned medium after 24 hour incubation at 37 °C. To determine the effect of compounds on NOD1/2 activator-dependent IL-8 secretion in BacMam transduced HEK293T, the cells were infected with virus for 6 hours (MOI = 50), and following the removal of virus the cells were cultured over-night. The next day medium was again replaced and cells pre-treated with compound for 30 minutes followed by stimulation with either MDP (30 ng/mL) or iE-DAP (300 ng/mL). IL-8 was measured in conditioned medium by HTRF after 24-hour incubation at 37 °C.
# T1 sequence (O43353 whole entry): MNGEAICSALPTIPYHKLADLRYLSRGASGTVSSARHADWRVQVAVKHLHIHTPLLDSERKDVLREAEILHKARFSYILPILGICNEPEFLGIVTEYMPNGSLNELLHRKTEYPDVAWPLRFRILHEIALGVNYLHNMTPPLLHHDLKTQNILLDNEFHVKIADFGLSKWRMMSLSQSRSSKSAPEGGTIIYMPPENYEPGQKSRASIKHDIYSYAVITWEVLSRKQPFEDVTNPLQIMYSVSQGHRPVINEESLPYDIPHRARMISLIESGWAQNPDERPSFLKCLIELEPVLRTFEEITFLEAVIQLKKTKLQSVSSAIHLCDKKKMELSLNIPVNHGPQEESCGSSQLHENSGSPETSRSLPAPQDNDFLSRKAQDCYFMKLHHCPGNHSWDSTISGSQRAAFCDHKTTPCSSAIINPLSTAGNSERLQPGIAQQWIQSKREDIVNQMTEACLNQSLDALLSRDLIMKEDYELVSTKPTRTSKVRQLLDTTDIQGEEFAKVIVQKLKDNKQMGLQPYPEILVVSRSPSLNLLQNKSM
structure (smiles),measurement,setting,value
"O=C(Cn1c(CCNC(=O)c2ccccc2)nc2ccccc21)Nc1ccc2c(c1)CCC2 [Compound 1, N-(2-(1-(2-((2,3-dihydro-1H-inden-5-yl)amino)-2-oxoethyl)-1H-benzo[d]imidazol-2-yl)ethyl)benzamide]","effect on Tri-DAP-induced p-p38, p-JNK and total IκBα",NOD1 [1],inactive
same,IC50,[2],> 100 µM
same,effect on uptake of Rhodamine-MDP into cells,HCT116 cells,unaffected; also recorded: does not block cellular uptake of MDP
same,"effect on IL-8 secretion induced by NOD1 virus alone, single concentration","NOD1 [3]; MOI 50, 24 hours, GSK669 5 μM, IKK inhibitor 0.5 μM",failed to block IL-8 secretion
same,effect on IL-8 secretion induced by over-expression of NOD1,NOD1 [3]; in the presence or absence of iE-DAP,had no effect

# From publication PMC3731320, “Identification of Benzimidazole Diamides as Selective Inhibitors of the Nucleotide-Binding Oligomerization Domain 2 (NOD2) Signaling Pathway” (PLoS ONE, 2013)
